This note sets out measurements from ChEMBL document CHEMBL6177921, “Enhancing the antimycobacterial efficacy of pyridine-4-carbohydrazide: linkage to additional antimicrobial agents via oxocarboxylic acids” (RSC Med Chem, 2025).

Each structure is given as a SMILES string. In brackets after ≈: the same amount, converted by molar mass. A value given as a limit tells only on which side of the number the result lay.

Common to all, as to type: functional
Experiment [1] has as its system Mycobacterium tuberculosis. The experiment in a line: Antimycobacterial activity against STM/INH/EMB/RIF/OFX/GEN/AMK-resistant Mycobacterium tuberculosis clinical isolate Praha 131 assessed as bacterial growth inhibition incubated for 14 days by two-fold serial dilution method. The conditions noted are these: Praha 131, 336 h, time 14 day.
For experiment [2], the system named is Mycobacterium tuberculosis. The experiment in a line: Antimycobacterial activity against TM/INH/EMB/RIF/OFX/GEN/AMK-resistant Mycobacterium tuberculosis clinical isolate Praha 131 assessed as bacterial growth inhibition incubated for 21 days by two-fold serial dilution method. As to conditions: Praha 131, 504 h, time 21 day.
Experiment [3] deals with Mycobacterium tuberculosis. The experiment in a line: Antimycobacterial activity against STM/INH/RIF resistant Mycobacterium tuberculosis clinical isolate 9449/2007 strain assessed as bacterial growth inhibition incubated for 14 days by two-fold serial dilution method. The conditions noted are these: 9449/2007, 336 h, time 14 day.
The test system of experiment [4] is Mycobacterium tuberculosis. The experiment is described as follows: Antimycobacterial activity against STM/INH/RIF resistant Mycobacterium tuberculosis clinical isolate 9449/2007 strain assessed as bacterial growth inhibition incubated for 21 days by two-fold serial dilution method. The conditions noted are these: 9449/2007, 504 h, time 21 day.
Experiment [5] deals with Mycobacterium tuberculosis. The experiment is described as follows: Antimycobacterial activity against STM/INH/EMB/RIF/OFX/CLO resistant Mycobacterium tuberculosis clinical isolate 8666/2010 strain assessed as bacterial growth inhibition incubated for 14 days by two-fold serial dilution method. As to conditions: 8666/2010, 336 h, time 14 day.
The subject of experiment [6] is Mycobacterium tuberculosis. The experiment is described as follows: Antimycobacterial activity against STM/INH/EMB/RIF/OFX/CLO resistant Mycobacterium tuberculosis clinical isolate 8666/2010 strain assessed as bacterial growth inhibition incubated for 21 days by two-fold serial dilution method. As to conditions: 8666/2010, 504 h, time 21 day.
Experiment [7] has as its system Mycobacterium tuberculosis. The experiment is described as follows: Antimycobacterial activity against STM/INH/EMB/RIF/CLO-resistant Mycobacterium tuberculosis clinical isolate Praha 1 assessed as bacterial growth inhibition incubated for 14 days by two-fold serial dilution method. The conditions noted are these: Praha 1, 336 h, time 14 day.
The test system of experiment [8] is Mycobacterium tuberculosis. The experiment in a line: Antimycobacterial activity against STM/INH/EMB/RIF/CLO-resistant Mycobacterium tuberculosis clinical isolate Praha 1 assessed as bacterial growth inhibition incubated for 21 days by two-fold serial dilution method. As to conditions: Praha 1, 504 h, time 21 day.
Experiment [9] relates to Mycobacterium tuberculosis. The experiment is described as follows: Antimycobacterial activity against STM/INH/EMB/RIF/OFX/CLO resistant Mycobacterium tuberculosis clinical isolate Praha 4 assessed as bacterial growth inhibition incubated for 14 days by two-fold serial dilution method. As to conditions: Praha 4, 336 h, time 14 day.
In experiment [10] the test system is Mycobacterium tuberculosis. The experiment in a line: Antimycobacterial activity against STM/INH/EMB/RIF/OFX/CLO-resistant Mycobacterium tuberculosis clinical isolate Praha 4 assessed as bacterial growth inhibition incubated for 21 days by two-fold serial dilution method. The conditions noted are these: Praha 4, 504 h, time 21 day.
Experiment [11] concerns Mycobacterium tuberculosis. The experiment is described as follows: Antimycobacterial activity against STM/INH/EMB/RIF resistant Mycobacterium tuberculosis clinical isolate 234/2005 assessed as bacterial growth inhibition incubated for 14 days by two-fold serial dilution method. The conditions noted are these: 234/2005, 336 h, time 14 day.
Experiment [12] relates to Mycobacterium tuberculosis. The experiment is described as follows: Antimycobacterial activity against STM/INH/EMB/RIF resistant Mycobacterium tuberculosis clinical isolate 234/2005 strain assessed as bacterial growth inhibition incubated for 21 days by two-fold serial dilution method. As to conditions: 234/2005, 504 h, time 21 day.
The test system of experiment [13] is Mycobacterium tuberculosis. The experiment is described as follows: Antimycobacterial activity against STM/INH/EMB/RIF/OFX resistant Mycobacterium tuberculosis clinical isolate 7357/1998 strain assessed as bacterial growth inhibition incubated for 14 days by two-fold serial dilution method. The conditions noted are these: 7357/1998, 336 h, time 14 day.
In experiment [14] the test system is Mycobacterium tuberculosis. The experiment is described as follows: Antimycobacterial activity against STM/INH/EMB/RIF/OFX resistant Mycobacterium tuberculosis clinical isolate 7357/1998 strain assessed as bacterial growth inhibition incubated for 21 days by two-fold serial dilution method. The conditions noted are these: 7357/1998, 504 h, time 21 day.

Turning to `C/C(=N\NC(=O)c1ccncc1)C(=O)Nc1ccc(Sc2ccc([N+](=O)[O-])cc2)cc1`, the MIC in experiment [1], in experiment [2], in experiment [3], in experiment [4], in experiment [5] and in experiment [6] was at least 250 µM each time.
Regarding `C/C(=N\NC(=O)c1ccncc1)C(=O)Nc1ccc(Oc2ccccc2)cc1`, the MIC in experiment [7], in experiment [8], in [9], in experiment [10], in experiment [1] and in [2] was 16 µM (≈ 5.99 µg/mL) in each case. Moreover, the MIC (as a rule, the lowest concentration that inhibits growth of the organism) stood at 8 µM (≈ 3 µg/mL) in experiment [11]; 16 µM (≈ 5.99 µg/mL) in experiment [12]; 16 µM (≈ 5.99 µg/mL) in [3]; 16 µM (≈ 5.99 µg/mL) in experiment [4]; 16 µM (≈ 5.99 µg/mL) in [13]; 16 µM (≈ 5.99 µg/mL) in [14]. The MIC in experiment [5] and in experiment [6] was 16 µM (≈ 5.99 µg/mL) each time.
In the case of `CC1COc2c(N3CCN(C)CC3)c(F)cc3c(=O)c(C(=O)O)cn1c23` (stereo not drawn) [OFLOXACIN], the minimal inhibitory concentration (MIC) is 1.4 µM (≈ 0.506 µg/mL) in experiment [7]; 1.4 µM (≈ 0.506 µg/mL) in [8]; above 22 µM in experiment [9]; above 22 µM in [10]; 22 µM (≈ 7.95 µg/mL) in experiment [1]; above 17 µM in experiment [2]. Moreover, the MIC in experiment [11] is 0.7 µM (≈ 0.253 µg/mL); in experiment [12], 0.7 µM (≈ 0.253 µg/mL); in experiment [3], 2.8 µM (≈ 1.01 µg/mL); in experiment [4], 2.8 µM (≈ 1.01 µg/mL); in experiment [13], 11 µM (≈ 3.98 µg/mL); in experiment [14], 11 µM (≈ 3.98 µg/mL). The MIC in experiment [5] and in experiment [6] was 11 µM (≈ 3.98 µg/mL) in each case.
As for `C/C(=N\NC(=O)c1ccncc1)C(=O)Nc1ccc(S(=O)(=O)Nc2cc(C)on2)cc1`, the MIC in experiment [1], in [2], in experiment [3], in [4], in experiment [5] and in [6] was at least 250 µM throughout.
Take `C/C(=N\NC(=O)c1ccncc1)C(=O)Nc1ccc(-c2ccccc2)cc1`: the minimal inhibitory concentration (MIC) in [7] came to 32 µM (≈ 11.5 µg/mL); in [8], 64 µM (≈ 22.9 µg/mL); in [9], 64 µM (≈ 22.9 µg/mL); in experiment [10], 64 µM (≈ 22.9 µg/mL); in experiment [1], 32 µM (≈ 11.5 µg/mL); in [2] it was 64 µM (≈ 22.9 µg/mL). In addition, the MIC in experiment [11] was determined as 64 µM (≈ 22.9 µg/mL); in [12], 125 µM (≈ 44.8 µg/mL); in [3] it was 64 µM (≈ 22.9 µg/mL); in experiment [4], 64 µM (≈ 22.9 µg/mL); in experiment [13], 64 µM (≈ 22.9 µg/mL); in experiment [14], 125 µM (≈ 44.8 µg/mL). Also, the MIC in experiment [5] and in experiment [6] was 64 µM (≈ 22.9 µg/mL) throughout.
Regarding `CNC(C)[C@@H]1CC[C@@H](N)[C@@H](O[C@H]2[C@H](O)[C@@H](O[C@H]3OC[C@](C)(O)[C@H](NC)[C@H]3O)[C@H](N)C[C@@H]2N)O1.CN[C@@H]1[C@@H](O)[C@@H](O[C@@H]2[C@@H](O)[C@H](O[C@H]3O[C@H](C(C)N)CC[C@H]3N)[C@@H](N)C[C@H]2N)OC[C@]1(C)O.CN[C@@H]1[C@@H](O)[C@@H](O[C@@H]2[C@@H](O)[C@H](O[C@H]3O[C@H](CN)CC[C@H]3N)[C@@H](N)C[C@H]2N)OC[C@]1(C)O` (stereo partly drawn), the MIC is 1 µM in [7]; 1 µM in [8]; 0.5 µM in experiment [9]; 0.5 µM in [10]; above 17 µM in experiment [1]; above 17 µM in experiment [2]. In addition, the MIC amounted to 0.26 µM in experiment [11]; 0.26 µM in experiment [12]; 1 µM in experiment [3]; 1 µM in experiment [4]; 1 µM in experiment [13]; 1 µM in experiment [14]. Further, the MIC in experiment [5] and in experiment [6] was 4 µM each time.
